Tested on: P. mathanolica cells (strain CBS6515, UV-mutagenized)
Test: Nystatin enrichment for auxotrophic mutants: titering of colony forming units, nystatin-treated versus control cells
Format: cell-based, Pichia methanolica
Details: 1 mg nystatin added to remainder of 500 ml culture in minimal broth with 5 g/L ammonium sulfate, incubated one additional hour; versus control cells without nystatin
Method: The cells are then transferred to a culture medium deficient in assimilable nitrogen so that cellular nitrogen stores are depleted. By "deficient in assimilable nitrogen" it is meant that the medium lacks an amount of nitrogen sufficient to support growth of the cells. Depletion of cellular nitrogen stores will generally require about 12 to 24 hours of incubation, with 16 hours being sufficient under common conditions. Following depletion of nitrogen stores, the cells are cultured in a defined culture medium comprising an inorganic nitrogen source and an amount of an antifungal antibiotic sufficient to kill growing P. mathanolica cells. The antibiotic nystatin (mycostatin) is particularly preferred. Preferred inorganic nitrogen sources are those comprising ammonium ions, such as ammonium sulfate. In general, the medium will contain 10-200 mM ammonium, preferably about 60 mM ammonium. Nystatin is included at a concentration of 0.1 to 100 mg/l, preferably 0.5 to 20 mg/L, more preferably about 2 mg/L ([…]). […] Those skilled in the art will recognize that the actual antibiotic concentration and exposure time required to kill prototrophic cells can be readily determined empirically,and certain adjustments may be necessary to compensate for variations in specific activity between individual batches of antibiotic. […]

Q: How did the “decrease in the number of viable cells (colony forming units), factor” value turn out when `C[C@@H]1[C@H](O)[C@@H](C)/C=C/C=C/CC/C=C/C=C/C=C/C=C/C(O[C@H]2O[C@H](C)[C@@H](O)[C@H](N)[C@@H]2O)CC2O[C@](O)(CC(O)C(O)CCC(O)CC(O)CC(O)CC(=O)O[C@H]1C)CC(O)C2C(=O)O` (stereo partly shown) [nystatin] was run?
A: Its value is 10^4.
